US20080268076A1, “Composition for Inhibiting Acyl-Coa:Cholesterol Acyltransferase” (priority 2005, published 2008)

tested on: acyl-CoA:cholesterol acyltransferase (ACAT); assay: Assay for ACAT activity with [1-14C]oleoyl-CoA and rat liver microsomal enzyme; details: ACAT inhibition, compared with the positive control obovatol
Description: The livers were removed from Male Sprague-Dawley rats (250-300 g), washed with microsome buffer A (0.25 M sucrose, 1 mM EDTA, 0.01 M Tris-HCl, pH 7.4), finely fractioned with scissors, and homogenized using a Teflon-glass homogenizer.
A reaction solution was prepared by mixing 10.0 μl of the sample, 4.0 μl of a rat liver microsomal enzyme of rat, 20.0 μl of an assay buffer [0.5 M KH2PO4, 10 mM DTT, pH 7.4], 15.0 μl of 40 mg/me BSA (essentially fatty acid free), 2.0 μl of 20 mg/me cholesterol, and 41.0 μl of distilled water, and subjected to pre-reaction at 37° C. for 20 min. To this enzymatic solution was added 8.0 μl of [1-^14C]oleoyl-CoA (0.05 μCi, final conc. 10 μM), and enzyme reaction was carried out at 37° C. for 25 min and terminated with 1 ml of isopropanol-heptane (4:1 v/v). Following the addition of 0.6 ml of heptane and 0.4 ml of five fold-diluted assay buffer, centrifugation was performed to separate the organic solvent. 100 μl of the supernatant was mixed well with 3 ml of Lipoluma scintillation cocktail and radioactivity was measured using a liquid scintillation counter.
Activity of inhibiting ACAT was quantified as radioactivity detected in the product of the reaction between the radio-labeled substrate and the enzyme in the presence of the assay samples, and percentage activity inhibition was calculated according to Equation 1 as follows.
CPM (T): CPM detected upon co-existence of sample and enzyme
CPM (C1): CPM upon existence of enzyme alone in the absence of sample
CPM (C2): CPM detected upon existence of sample alone in the absence of enzyme
CPM (B): CPM detected in the absence of both enzyme and sample.

| inhibitory activity relative to obovatol | Compound |
| --- | --- |
| 12 times | CC(C)CNC(=O)/C=C/C=C/CCCC/C=C/c1ccc2c(c1)OCO2 [Chemical Formula 2, pipercide] |

same assay, conditions: read-out: IC50 against ACAT; rat liver microsomal enzyme

| Compound | IC50 |
| --- | --- |
| CCCCC/C=C/C=C/C(=O)NCC(C)C [Chemical Formula 5, pellitorin] | 40.4 µM |
| CC(C)CNC(=O)/C=C/C=C/CC/C=C/c1ccc2c(c1)OCO2 [Chemical Formula 1, retrofractamide A] | 24.5 µM |
| obovatol [reference compound] | 44 µM |

Further lines, results first:

| IC50 | Compound |
| --- | --- |
| 11.5 µM | CC(C)CNC(=O)/C=C/CCCCCC/C=C/c1ccc2c(c1)OCO2 [Chemical Formula 4, piperchabamide D] |
| 87.5 µM | O=C(/C=C/CCCCCCc1ccc2c(c1)OCO2)N1CCCCC1 [Chemical Formula 3, piperrolein B] |
| 3.7 µM | CC(C)CNC(=O)/C=C/C=C/CCCC/C=C/c1ccc2c(c1)OCO2 [Chemical Formula 2, pipercide] |
